Reference: patent US20080249043A1, “Methods and Compositions Involving Protein Kinase C-Delta” (priority 2004, published 2008)

What was measured:
Format in all cases: cell-based
PLS3 = PLS3 threonine phosphorylation: Ni-bead pulldown of His-tagged PLS3, Western blot with PT antibody, HeLa cells; settings: HeLa cells with His-tagged PLS3, AD198 0, 2, 4 and 6 h
Protocol: Pulldown of His-tagged proteins from transfected HeLa cells—Transfected HeLa cells were washed with ice-cold phosphate-buffered saline (PBS) and incubated in the lysis buffer (50 mM NaH2PO4, 500 mM NaCl, 20 mM imidazole, 1% Triton X-100, 20 mM 2-mercaptoethanol, pH8.0) for 5 min and sonicated briefly on ice. The lysates were centrifuged at 10,000×g for 10 min at 4° C. The supernatant was saved and the protein concentration was measured with the Bio-Rad protein assay (Bio-Rad Laboratories, Hercules, Calif.) and adjusted to same concentrations for each sample. The supernatants were incubated with Ni-beads on a shaker for 2 h at 4° C. Beads were then pelleted at 800×g for 2 min at 4° C. and washed with ice-cold wash buffer (50 mM NaH2PO4, 500 mM NaCl, 20 mM imidazole, 1% Triton X-100, pH8.0) for five times. Beads were resuspended in SDS sample buffer and analyzed by Western blotting.
Western blot analysis—Equal amounts of protein were analyzed by 10% SDS-PAGE and electrotransferred to Immobilon-P membranes (Millipore Corporation, Bedford, Mass.). Monoclonal PKC-δ, PT, and β-actin and polyclonal VDAC antibodies were used at 1:1,000 and polyclonal PLS3 antibody was used at 1:2,000 for immunoblotting. Secondary anti-mouse or anti-rabbit antibodies conjugated with horseradish peroxidase were used at 1:2,000 and incubated with the membrane for 1 h at room temperature. […]

HeLa cells [1] = test: Apoptosis by PI staining and flow cytometry (subG1 population) in HeLa cells
Protocol: Cell culture, transfection and treatment—HeLa cells were cultured in Dulbecco's modified Eagle's medium (DMEM) containing 10% fetal bovine serum, 2 mM L-glutamine and penicillin (100 units/ml)-streptomycin (100 μg/ml) at 37° C. in a humidified 5% CO2 atmosphere. HeLa cells at 90% confluence were transfected with different mammalian expression vectors using Lipofectamin 2000 according to the manufacturer's protocol (Invitrogen Inc., Carlsbad, Calif.). At 24 h or 48 h after transfection, cells were treated with 1:100 dilution of AD198 that was dissolved in dimethyl sulfoxide (DMSO). For down-regulation of PLS3, HeLa cells at 50% confluence were transfected with siRNA against PLS3 or a scrambled control. At 48 h, cells were treated with AD198 for 16 h and harvested for flow cytometry. The whole cell lysate was extracted for analysis with Western blotting.
Analysis of apoptosis and determination of the transmembrane potential in mitochondria—Cell death was quantified by propidium iodide (PI) staining, followed by flow cytometry (Becton-Dickinson). HeLa cells were fixed in 0.5 ml cold 70% ethanol at −20° C. overnight. Cell pellet were resuspended in 300 μl of PBS containing 0.025 mg/ml PI, 0.05% Triton X-100, 0.1 mg/ml RNase A and incubated at room temperature for 30 min. The DNA content was evaluated by FACScan. For mitochondrial potential analysis, HeLa cells were incubated with MitoTracker Green at 37° C. for 20 min. The cells were collected and washed with PBS and analyzed by FACScan.
Cell culture, transfection, selection and treatment—HeLa cells were cultured in Dulbecco's modified Eagle's medium (DMEM) with 10% fetal bovine serum, 2 mM L-glutamine, 100 units/ml penicillin and 100 μg/ml streptomycin at 37° C. HeLa cells at 90% confluence were transfected with different mammalian expression vectors or siRNA using Lipofectamin 2000 according to the manufacturer's protocol (Invitrogen Inc., Carlsbad, Calif.). At 48 h after transfection, cells were incubated with 5 μM AD198 or dimethyl sulfoxide (DMSO) for 4 h or 16 h. After transfection, cells were selected with 1 mg/ml G418 for 2 wk. After corresponding mock-transfected cells were killed by G418, the concentration of G418 was decreased to 0.5 mg/ml and maintained for another 2 wk. The whole cell lysates or subcellular fractions were extracted for Western blotting analysis (Liu et al. (2003)).
Analysis of apoptosis—HeLa cells were harvested and fixed in 70% ethanol at −20° C. overnight. Cells were then washed with PBS and stained with 0.025 mg/ml propidium iodide (PI), 0.05% Triton X-100, 0.1 mg/ml RNase A for 30 min at room temperature. The DNA content was analyzed by FACScan (Becton-Dickinson), and the subG0/G1 population was used to represent apoptosis.

HeLa cells [2] = test: CL distribution in mitochondria by NAO staining and flow cytometry in HeLa cells; settings: 5 μM AD198 4 h
Protocol: (a) HeLa cells were treated with 5 μM AD198 or DMSO as control for 4 h. Cells were stained with different concentrations of NAO and the median fluorescent intensity was determined by flow cytometry. (b) The median fluorescent intensity value of control cells stained with 35 μM NAO was considered as 100% and used to calculate the percentages in each NAO concentration. Results were average of two independent experiments. (c) After transfection for 48 h, HeLa-control, HeLa-PLS3 and HeLa-PLS3(T21D) cells were stained with different concentrations of NAO and the median fluorescent intensity was determined by flow cytometry. The median fluorescent intensity value of 35 μM NAO was considered as 100% and used to calculate the percentage in each NAO concentration. Results were average of two independent experiments.
Analysis of CL distribution in the mitochondria outer membrane—NAO was used to determine the distribution of CL in mitochondria (Garcia Fernandez, et al. Anal Biochem 328:174-180 (2004)). When NAO binds CL at 2:1 ratio (in the saturated state), fluorescence emission occurs at 630 nm. When cells were incubated with increasing concentrations of NAO, NAO saturates CL in the outer member first and then the inner member of mitochondria. Lower concentrations of NAO (2.5-12 μM) were used to saturate CL in the mitochondrial outer member and to measure the amount of CL in that compartment. […]

In the case of `CCCCC(=O)OCC(=O)[C@]1(O)Cc2c(O)c3c(c(O)c2[C@@H](O[C@H]2C[C@H](NCc4ccccc4)[C@H](O)[C@H](C)O2)C1)C(=O)c1c(OC)cccc1C3=O` [AD198, N-benzyladriamycin-14-valerate], the “threonine phosphorylation of PLS3” value (PLS3) was “steadily increased”, the AD198-induced apoptosis (HeLa cells [1]; HeLa cells expressing PLS3(T21A), 5 μM AD198, 16 h (FIG. 9)) was “same degree of apoptosis as the control cells” and the “percentage of AD198-induced apoptosis” value (HeLa cells [1]; HeLa cells expressing wild-type PLS3, 5 μM AD198, 16 h (FIG. 9)) was 31%. For the same compound, the “apoptosis after AD198 treatment” value (HeLa cells [1]; HeLa cells expressing wild-type PLS3, 5 μM AD198, 16 h (FIG. 11), DMSO 9%) was 43%, the “apoptosis after AD198 treatment” value (HeLa cells [1]; HeLa cells transfected with PLS3(T21D), 5 μM AD198, 16 h (FIG. 11), DMSO 17%) was 27% and the “AD198-induced apoptosis when PKC-δ down regulated by siRNA” value (HeLa cells [1]; HeLa cells, AD198 1, 5 and 10 μM, 16 h) was “less apoptosis was detected”. The “sensitivity to AD198-induced apoptosis of cells with overexpression of PLS3” value (HeLa cells [1]; HeLa cells, three concentrations of AD198, 16 h, versus without PLS3 overexpression) was “more sensitive”, the “AD198-induced apoptosis in cells transfected with siRNA against PLS3” value (HeLa cells [1]; HeLa cells, versus scrambled siRNA control, 16 h) was “suppressed” and the “apoptosis after AD198 treatment” value (HeLa cells [1]; HeLa-control cells, 5 μM AD198, 16 h (FIG. 11), DMSO 6%) was 22%. The “percentage of AD198-induced apoptosis” value (HeLa cells [1]; control HeLa cells, 5 μM AD198, 16 h (FIG. 9)) was 7%, the “absolute NAO fluorescence (amount of CL)” value (HeLa cells [2]; HeLa cells) was “decrease in absolute NAO fluorescence” and the “percentage of CL in the outer membrane” value (HeLa cells [2]; NAO concentrations lower than 9 μM) was “higher percentage of CL than control cells”.
